{"source": "patent US20030013685A1", "about": "“Process for increasing the egg production and strengthening the eggshells of poultry” (priority 2000, published 2003)", "key": {"[1]": {"system": "laying hens", "conditions": "cited from earlier work"}, "[2]": {"system": "hens of ISA Brown strain", "test": "Laying parameters of hens after a single subcutaneous administration of tiludronic acid (disodium tiludronate) before onset of laying", "format": "in vivo, hen", "conditions": "for Age of onset of laying: hens monitored up to 55 weeks old; for Average number of eggs laid per hen and per week / Average total number of eggs laid per hen: from onset of laying up to 55 weeks old", "method": "(§1) A total number of 216 hens of ISA Brown strain between 15 and 17 weeks old was divided into 3 groups for the purpose of evaluating the effects on the production of eggs of a single subcutaneous administration of tiludronic acid, in the form of its sodium salt (disodium tiludronate).\n(§2) Three doses were compared: 0, 1 and 10 mg/kg (corresponding amount of tiludronic acid/kg). The tiludronic acid was administered in the form of injectable aqueous solutions such that the volume injected per bird was 1 ml per kilo of live weight. The tiludronic acid solutions were thus concentrated to 0.1% and 1% for the doses of 1 and 10 mg/kg, respectively. The control group received a placebo corresponding to water for an injectable preparation. The injections were performed subcutaneously in the region above the superficial pectoral muscle.\nThe hens were housed in individual cages in the same building at controlled temperature and hygrometry. Each animal was identified by a number carried on a ring attached to a wing. They received the same standard feed for laying hens, freely throughout the duration of the study. Drinking water was also distributed freely.\nThe average age of onset of laying for the hens in this strain is 20 weeks, with extremes of between 18 and 23 weeks. Consequently, for the hens of this study, the average delay between the treatment and the age of onset of laying had to be from 3 to 5 weeks. The duration of the study was 40 weeks. At the end of the study, the hens were 55 weeks old.\nThe other half of the total number of hens was monitored in order to collect the following laying parameters: age on laying the first egg and total number of eggs laid up to 55 weeks old. For each group, the average number of eggs laid per hen and per week was calculated over the entire laying period and week by week, in order to establish the laying curves.\n(§3) The “age of onset of laying”, “total number of eggs laid per hen”, “number of eggs laid per hen and per week over the entire laying period”, “mechanical strength of the shell”, “thickness of the shell” and “medullary bone volume” criteria were compared by means of a single-factor variance analysis (dose factor)."}, "[3]": {"system": "hens of ISA Brown strain", "test": "Mechanical strength of the eggshell by quasi-static compression", "format": "in vivo, hen", "conditions": "for Mechanical strength of the shell at 23 weeks: 23 weeks old; for Mechanical strength of the shell at 54 weeks: 54 weeks old", "method": "as §1, §2\n(§4) Moreover, an analysis of the mechanical strength of the shell and the thickness of the mineralized part of the shell was carried out using a sample of 12 hens at the following two dates of maturity: at 23 weeks old (i.e. at the start of laying) and at 54 weeks old. The strength of the shell was measured quantitatively by a technique of quasi-static compression of the eggshell. The thickness of the shell was measured from images obtained with an electron microscope.\nas §3"}, "[4]": {"system": "hens of ISA Brown strain", "test": "Thickness of the mineralized part of the shell from electron microscope images", "format": "in vivo, hen", "conditions": "for Thickness of the mineralized part of the shell at 23 weeks: 23 weeks old; for Thickness of the mineralized part of the shell at 54 weeks: 54 weeks old", "method": "as §1, §2, §4, §3"}, "[5]": {"system": "hens of ISA Brown strain", "test": "Histomorphometric examination of tarsometatarsal bone (medullary bone volume)", "format": "in vivo, hen", "conditions": "for Multiplication factor of medullary bone volume: onset of laying to 55 weeks old", "method": "as §1, §2\nOne half of the total number of hens was sacrificed on laying the first egg, in order to carry out a histomorphometric examination. This examination was performed on one of the two tarsometatarsal bones.\nAt 55 weeks old, all the animals were sacrificed and a histomorphometric examination of one of the tarsometatarsal bones was performed under the same conditions as on the bones of the hens sacrificed on laying of the first egg.\nas §3"}, "[6]": {"conditions": "treated groups, laying curves FIG. 1 and 2"}}, "note": "Read-outs that look alike come from different tables or passages of the source."}
{"smiles": "NCCCC(O)(P(=O)(O)O)P(=O)(O)O", "note": "[alendronate, [4-amino-1-hydroxybutylidene] bisphosphonate]", "values": [{"measurement": "Effect on laying", "setting": "[1]; 1 mg/kg subcutaneously every 2 days for 2 weeks, about 18 weeks after onset of laying, within a few days", "result": "complete stoppage of laying"}, {"measurement": "Effect on laying", "setting": "[1]; 0.01, 0.1 or 1 mg/kg during laying", "result": "reduction, or even the stopping, of laying"}, {"measurement": "Effect on the quality of the shell", "setting": "[1]; administration during laying, more pronounced the higher the dose", "result": "adverse change in the quality of the shell"}]}
{"smiles": "O=P(O)(O)C(Sc1ccc(Cl)cc1)P(=O)(O)O", "note": "[tiludronic acid, 4-chlorophenylthiomethylenebisphosphonic acid]", "values": [{"measurement": "Total number of eggs laid per hen versus control group (2-by-2 analysis)", "setting": "[2]; 1 mg/kg", "result": "significantly higher"}, {"measurement": "Age of onset of laying", "setting": "[2]; 1 mg/kg single subcutaneous dose", "result": "148.3 ± 7.8", "unit": "days"}, {"measurement": "Average number of eggs laid per hen and per week", "setting": "[2]; 1 mg/kg", "result": "6.53 ± 0.27"}, {"measurement": "Average total number of eggs laid per hen", "setting": "[2]; 1 mg/kg", "result": "221.6 ± 11.2"}, {"measurement": "Start of laying on average after the hens of the other 2 groups", "setting": "[2]; 1 mg/kg, no significant difference (p=0.11)", "result": 3, "unit": "days"}, {"measurement": "Age of onset of laying", "setting": "[2]; 10 mg/kg single subcutaneous dose", "result": "145.1 ± 8.8", "unit": "days"}, {"measurement": "Average number of eggs laid per hen and per week", "setting": "[2]; 10 mg/kg", "result": "6.39 ± 0.34"}, {"measurement": "Average total number of eggs laid per hen", "setting": "[2]; 10 mg/kg", "result": "219.8 ± 12.6"}, {"measurement": "Laying peak compared with control group", "setting": "[2]; [6]", "result": "higher"}, {"measurement": "Slope of the laying curve compared with controls", "setting": "[2]; [6]", "result": "substantially smaller"}, {"measurement": "Change in the age of onset of laying", "setting": "[2]; treatment with tiludronic acid, 1 and 10 mg/kg", "result": "did not result in any change"}, {"measurement": "Mechanical strength of the shell at 23 weeks", "setting": "[3]; 1 mg/kg", "result": "39.3 ± 5.2", "unit": "N"}, {"measurement": "Mechanical strength of the shell at 54 weeks", "setting": "[3]; 1 mg/kg", "result": "28.3 ± 4.9", "unit": "N"}, {"measurement": "Mechanical strength of the shell at 23 weeks", "setting": "[3]; 10 mg/kg", "result": "41.5 ± 6.3", "unit": "N"}, {"measurement": "Mechanical strength of the shell at 54 weeks", "setting": "[3]; 10 mg/kg", "result": "30.3 ± 6.1", "unit": "N"}, {"measurement": "Loss of mechanical strength of the eggshells between the two maturity dates of measurement", "setting": "[3]; two treated groups (1 and 10 mg/kg), between 23 and 54 weeks", "result": "about −28%"}, {"measurement": "Thickness of the mineralized part of the shell at 23 weeks", "setting": "[4]; 1 mg/kg", "result": "0.256 ± 0.025", "unit": "mm"}, {"measurement": "Thickness of the mineralized part of the shell at 54 weeks", "setting": "[4]; 1 mg/kg", "result": "0.267 ± 0.026", "unit": "mm"}, {"measurement": "Thickness of the mineralized part of the shell at 23 weeks", "setting": "[4]; 10 mg/kg", "result": "0.272 ± 0.013", "unit": "mm"}, {"measurement": "Thickness of the mineralized part of the shell at 54 weeks", "setting": "[4]; 10 mg/kg", "result": "0.273 ± 0.021", "unit": "mm"}, {"measurement": "Volume of medullary bone of the tarsometatarsal bone at 55 weeks old", "setting": "[5]; 1 mg/kg", "result": "2.75 ± 2.72", "unit": "%"}, {"measurement": "Volume of medullary bone of the tarsometatarsal bone at the onset of laying", "setting": "[5]; 1 mg/kg", "result": "0.31 ± 0.53", "unit": "%"}, {"measurement": "Multiplication factor of medullary bone volume", "setting": "[5]; 1 mg/kg", "result": 9}, {"measurement": "Volume of medullary bone of the tarsometatarsal bone at 55 weeks old", "setting": "[5]; 10 mg/kg", "result": "3.53 ± 3.04", "unit": "%"}, {"measurement": "Volume of medullary bone of the tarsometatarsal bone at the onset of laying", "setting": "[5]; 10 mg/kg", "result": "0.26 ± 0.33", "unit": "%"}, {"measurement": "Multiplication factor of medullary bone volume", "setting": "[5]; 10 mg/kg", "result": 13}]}
